Experimental findings from US8735414B2 (priority 2009, dated 2014) are described below.

The subject of this test is bicistronic HCV replicon (replicon RNA, GenBank Accession No. AJ242654). Nature of the test: HCV Replicon Assay. It is filed as cell-based. To be noted: Hepatitis C virus, 72 h, read-out: Replicon IC50. Background: In antiviral work, replicon cells carry a viral genome segment that copies itself.
In general, IC50 refers to the midpoint of a concentration-inhibition curve. With `Cc1cc2c(C#N)c(-c3ccc(S(=O)(=O)N[C@H](C)C(F)(F)F)cn3)n(C3CCC3)c2cc1OC(F)F` [compound 665, 6-[3-cyano-1-cyclobutyl-6-(difluoromethoxy)-5-methyl-1H-indol-2-yl]-N-[(2R)-1,1,1-trifluoropropan-2-yl]pyridine-3-sulfonamide], the IC50 lay in the range of 0.5 to 2 µM.

As to `N#Cc1c(-c2ccc(S(=O)(=O)NC(CF)CF)cn2)n(C2CCCC2)c2cc(O)c(F)cc12` [compound 575, 6-(3-cyano-1-cyclopentyl-5-fluoro-6-hydroxy-1H-indol-2-yl)-N-(1,3-difluoropropan-2-yl)pyridine-3-sulfonamide], the half-maximal inhibitory concentration (IC50) was < 0.5 µM.

For `Cc1c(F)cc2c(C#N)c(-c3ncc(S(=O)(=O)NC(CF)CF)cn3)n(C3CCC3)c2c1F` [compound 668, 2-(3-cyano-1-cyclobutyl-5,7-difluoro-6-methyl-1H-indol-2-yl)-N-(1,3-difluoropropan-2-yl)pyrimidine-5-sulfonamide], the concentration for half-maximal inhibition (IC50) is < 0.5 µM.

Take `COc1cc2c(cc1F)c(C#N)c(-c1ccc(S(=O)(=O)N[C@@H](C)C(F)(F)F)cn1)n2C1CCC1` [compound 725, 6-(3-cyano-1-cyclobutyl-5-fluoro-6-methoxy-1H-indol-2-yl)-N-[(2S)-1,1,1-trifluoropropan-2-yl]pyridine-3-sulfonamide]: the IC50 was < 0.5 µM.

For `C[C@H](NS(=O)(=O)c1ccc(-c2c(C#N)c3ccc(OC(F)(F)F)cc3n2C2CCC2)nc1)C1CC1` [compound 152, 6-[3-cyano-1-cyclobutyl-6-(trifluoromethoxy)-1H-indol-2-yl]-N-[(1S)-1-cyclopropylethyl]pyridine-3-sulfonamide], the IC50 was < 0.5 µM.

As to `Cc1cc2c(cc1F)cc(-c1ccc(S(=O)(=O)N[C@@H](C)C(F)(F)F)cn1)n2-c1cscn1` [compound 957, 6-[5-fluoro-6-methyl-1-(1,3-thiazol-4-yl)-1H-indol-2-yl]-N-[(2S)-1,1,1-trifluoropropan-2-yl]pyridine-3-sulfonamide], the half-maximal inhibitory concentration (IC50) is 0.5 to 2 µM.

On to `CCc1cc2c(cc1F)c(C#N)c(-c1ccc(S(=O)(=O)N[C@@H](C)C(F)(F)F)cn1)n2-c1ccccc1F` [compound 1075, 6-[3-cyano-6-ethyl-5-fluoro-1-(2-fluorophenyl)-1H-indol-2-yl]-N-[(2S)-1,1,1-trifluoropropan-2-yl]pyridine-3-sulfonamide], for which the IC50 was < 0.5 µM.

Take `Cc1cc2c(cc1F)c(C#N)c(-c1ccc(S(=O)(=O)N[C@@H](C)C(F)(F)F)cn1)n2-c1ncco1` [compound 1073, 6-[3-cyano-5-fluoro-6-methyl-1-(1,3-oxazol-2-yl)-1H-indol-2-yl]-N-[(2S)-1,1,1-trifluoropropan-2-yl]pyridine-3-sulfonamide]: the IC50 is < 0.5 µM.

For the compound `CCC(NS(=O)(=O)c1ccc(-c2c(C#N)c3cc(F)c(OC(F)F)cc3n2C2CCC2)nc1)C(F)(F)F` (stereo not shown) [compound 790, 6-[3-cyano-1-cyclobutyl-6-(difluoromethoxy)-5-fluoro-1H-indol-2-yl]-N-(1,1,1-trifluorobutan-2-yl)pyridine-3-sulfonamide], the IC50 is < 0.5 µM.

`CCc1cc2c(cc1F)c(C(N)=O)c(-c1ccc(S(=O)(=O)N[C@@H](C)C(F)(F)F)cn1)n2-c1cncc(Cl)c1` [compound 1044, 1-(5-chloropyridin-3-yl)-6-ethyl-5-fluoro-2-(5-{[(2S)-1,1,1-trifluoropropan-2-yl]sulfamoyl}pyridin-2-yl)-1H-indole-3-carboxamide]: the IC50 was < 0.5 µM.

For the compound `C[C@H](NS(=O)(=O)c1ccc(-c2c(C#N)c3cc(F)ccc3n2C2CCCC2)nc1)C(F)(F)F` [compound 435, 6-(3-cyano-1-cyclopentyl-5-fluoro-1H-indol-2-yl)-N-[(2S)-1,1,1-trifluoropropan-2-yl]pyridine-3-sulfonamide], the 50% inhibitory concentration (IC50) is < 0.5 µM.

In the case of `Cc1cc2c(cc1F)c(C#N)c(-c1cc(C)c(S(=O)(=O)N[C@@H](C)C(F)(F)F)cn1)n2-c1ncccn1` [compound 853, 6-[3-cyano-5-fluoro-6-methyl-1-(pyrimidin-2-yl)-1H-indol-2-yl]-4-methyl-N-[(2S)-1,1,1-trifluoropropan-2-yl]pyridine-3-sulfonamide], the half-inhibitory concentration (IC50) is < 0.5 µM.

On to `Cc1cc2c(cc1F)c(C(=O)O)c(-c1ccc(S(=O)(=O)NC(C)(C)C)cn1)n2C1CCC1` [compound 776, 2-[5-(tert-butylsulfamoyl)pyridin-2-yl]-1-cyclobutyl-5-fluoro-6-methyl-1H-indole-3-carboxylic acid], for which the 50% inhibitory concentration (IC50) is < 0.5 µM.

With `N#Cc1c(-c2ccc(S(=O)(=O)NC3(C(F)(F)F)CC3)cn2)n(C2CCC2)c2cc(O)c(F)cc12` [compound 813, 6-(3-cyano-1-cyclobutyl-5-fluoro-6-hydroxy-1H-indol-2-yl)-N-[1-(trifluoromethyl)cyclopropyl]pyridine-3-sulfonamide], the 50% inhibitory concentration (IC50) was in the range of 0.5 to 2 µM.

`C[C@H](NS(=O)(=O)c1cnc(-c2c(C#N)c3ccc(F)cc3n2C2CCCC2)nc1)C1CC1` [compound 497, 2-(3-cyano-1-cyclopentyl-6-fluoro-1H-indol-2-yl)-N-[(1S)-1-cyclopropylethyl]pyrimidine-5-sulfonamide]: the IC50 is < 0.5 µM.

For the compound `CCc1cc2c(cc1F)c(C(N)=O)c(-c1ccc(S(=O)(=O)N[C@@H](C)C(F)(F)F)cn1)n2-c1ccccn1` [compound 909, 6-ethyl-5-fluoro-1-(pyridin-2-yl)-2-(5-{[(2S)-1,1,1-trifluoropropan-2-yl]sulfamoyl}pyridin-2-yl)-1H-indole-3-carboxamide], the half-maximal inhibitory concentration (IC50) lay in the range of 0.5 to 2 µM.

On to `CSc1cc2c(C#N)c(-c3ccc(S(=O)(=O)N[C@@H](C)C(F)(F)F)cn3)n(C3CCC3)c2cc1OC(F)F` [compound 685, 6-[3-cyano-1-cyclobutyl-6-(difluoromethoxy)-5-(methylsulfanyl)-1H-indol-2-yl]-N-[(2S)-1,1,1-trifluoropropan-2-yl]pyridine-3-sulfonamide], for which the half-inhibitory concentration (IC50) lay in the range of 0.5 to 2 µM.

In the case of `N#Cc1c(-c2ccc(S(=O)(=O)NC(CF)CF)cn2)n(CC2CC2)c2cc(C3CC3)ccc12` [compound 84, 6-[3-cyano-6-cyclopropyl-1-(cyclopropylmethyl)-1H-indol-2-yl]-N-(1,3-difluoropropan-2-yl)pyridine-3-sulfonamide], the half-inhibitory concentration (IC50) was < 0.5 µM.

Take `CC(C)S(=O)(=O)Nc1ccc(-c2c(C#N)c3ccc(OCC(F)(F)F)cc3n2CC2CC2)cn1` [compound 291, N-{5-[3-cyano-1-(cyclopropylmethyl)-6-(2,2,2-trifluoroethoxy)-1H-indol-2-yl]pyridin-2-yl}propane-2-sulfonamide]: the IC50 was 0.5 to 2 µM.

With `N#Cc1c(-c2ccc(S(=O)(=O)NC(CF)CF)cn2)n(-c2ncccn2)c2ccc(F)cc12` [compound 608, 6-[3-cyano-5-fluoro-1-(pyrimidin-2-yl)-1H-indol-2-yl]-N-(1,3-difluoropropan-2-yl)pyridine-3-sulfonamide], the IC50 was < 0.5 µM.

`C[C@H](NS(=O)(=O)c1ccc(-c2c(C#N)c3ccc(Cl)cc3n2C2CCC2)nc1)C1CC1` [compound 154, 6-(6-chloro-3-cyano-1-cyclobutyl-1H-indol-2-yl)-N-[(1S)-1-cyclopropylethyl]pyridine-3-sulfonamide]: the IC50 was < 0.5 µM.

Consider `Cc1cc2c(cc1F)cc(-c1ccc(S(=O)(=O)N[C@@H](C)C(F)(F)F)cn1)n2-c1ccc(C#N)o1` [compound 1060, 6-[1-(5-cyanofuran-2-yl)-5-fluoro-6-methyl-1H-indol-2-yl]-N-[(2S)-1,1,1-trifluoropropan-2-yl]pyridine-3-sulfonamide], for which the half-maximal inhibitory concentration (IC50) is 2 to 5 µM.
